Measurements from patent US20010025028A1, “Methods of inhibiting bone resorption” (Merck & Co., Inc., priority 1998, published 2001).

Tests used:
[1] = tested on: bone marrow cultures; settings: cited from earlier work
[2] = tested on: co-culture of mouse bone marrow cells and MB 1.8 mouse osteoblasts; assay: Osteoclastogenesis in murine co-cultures of bone marrow cells and MB 1.8 osteoblasts (TRAP fluorescence or counting of osteoclast-like cells); format: cell-based; settings: FIG. 1

For `CC[C@H](C)C(=O)O[C@H]1CCC=C2C=C[C@H](C)[C@H](CC[C@@H]3C[C@@H](O)CC(=O)O3)[C@H]21` [mevastatin], the “inhibition of in vitro osteoclastogenesis formation” value [1] is listed as “inhibit in vitro osteoclastogenesis formation”.
In the case of `C[C@@](O)(CCO)CC(=O)O` [mevalonic acid], the “effect of added mevalonic acid on the inhibition of osteoclastogenesis by mevastatin” value ([1]; added to mevastatin) is given as “partially restored”.
For `CC[C@H](C)C(=O)O[C@H]1C[C@@H](C)C=C2C=C[C@H](C)[C@H](CC[C@@H]3C[C@@H](O)CC(=O)O3)[C@H]21` [lovastatin], the “inhibition of osteoclastogenesis (tartrate resistant acid phosphatase activity, percent activity relative to no treatment)” value ([2]; lovastatin 1 and 10 μM added at days 5 and 6, TRAP activity measured on day 7) was “inhibition of osteoclastogenesis”.
For `CC1(O)CCOC(=O)C1` (racemic) [D,L-mevalonic acid lactone], the “reversal of lovastatin inhibition of osteoclastogenesis (TRAP fluorescence assay)” value ([2]; D,L-mevalonic acid lactone 1 mM together with 1 or 10 μM lovastatin, added at days 5 and 6, read on day 7) was “reversal”.
